The supplement of paper PMC10307832

Key:
Assay in all cases: relative viability (nuclei count vs DMSO), 5 days (fraction); higher = more cells survive
KN-93 + OSI-027 = compound: CN(C/C=C/C1=CC=C(C=C1)Cl)CC2=CC=CC=C2N(CCO)S(=O)(=O)C3=CC=C(C=C3)OC [KN-93] + COc1cccc2cc(-c3nc([C@H]4CC[C@H](C(=O)O)CC4)n4ncnc(N)c34)[nH]c12 [OSI-027] (partner 0.5 µM)
How it was run: (§1)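 The day after seeding in 1536-well plates, lung cancer cell lines were treated by pin tool with a single drug, or with a fixed anchor-drug dose together with five library-drug doses (not always all listed) in √10 steps. After 5 days, a combined fix-and-stain solution (final 0.05% Triton X-100, 1% formaldehyde, 1 ug/ml Hoechst) was added. Nuclei counted on 4× images gave relative viability as treated counts over vehicle counts, reported as the median of duplicate plates.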

KN-93 + Crizotinib = compound: CN(C/C=C/C1=CC=C(C=C1)Cl)CC2=CC=CC=C2N(CCO)S(=O)(=O)C3=CC=C(C=C3)OC [KN-93] + C[C@@H](Oc1cc(-c2cnn(C3CCNCC3)c2)cnc1N)c1c(Cl)ccc(F)c1Cl [Crizotinib] (partner 1 µM)
How it was run: as §1

KN-93 + Phenformin = compound: CN(C/C=C/C1=CC=C(C=C1)Cl)CC2=CC=CC=C2N(CCO)S(=O)(=O)C3=CC=C(C=C3)OC [KN-93] + N=C(N)NC(=N)NCCc1ccccc1 [Phenformin] (partner 250 µM)
How it was run: as §1

KN-93 + Alpelisib = compound: CN(C/C=C/C1=CC=C(C=C1)Cl)CC2=CC=CC=C2N(CCO)S(=O)(=O)C3=CC=C(C=C3)OC [KN-93] + Cc1nc(NC(=O)N2CCC[C@H]2C(N)=O)sc1-c1ccnc(C(C)(C)C(F)(F)F)c1 [Alpelisib] (partner 2 µM)
How it was run: as §1

KN-93 + Foretinib = compound: CN(C/C=C/C1=CC=C(C=C1)Cl)CC2=CC=CC=C2N(CCO)S(=O)(=O)C3=CC=C(C=C3)OC [KN-93] + COc1cc2c(Oc3ccc(NC(=O)C4(C(=O)Nc5ccc(F)cc5)CC4)cc3F)ccnc2cc1OCCCN1CCOCC1 [Foretinib] (partner 0.25 µM)
How it was run: as §1

Row | Cell Line | relative viability (KN-93 + OSI-027; first compound 0.08 µM) | relative viability (KN-93 + OSI-027; first compound 0.253 µM) | relative viability (KN-93 + OSI-027; first compound 2.53 µM) | relative viability (KN-93 + OSI-027; first compound 8 µM) | relative viability (KN-93 + Crizotinib; first compound 0.08 µM) | relative viability (KN-93 + Crizotinib; first compound 0.253 µM) | relative viability (KN-93 + Crizotinib; first compound 2.53 µM) | relative viability (KN-93 + Crizotinib; first compound 8 µM) | relative viability (KN-93 + Phenformin; first compound 0.08 µM) | relative viability (KN-93 + Phenformin; first compound 0.253 µM) | relative viability (KN-93 + Phenformin; first compound 2.53 µM) | relative viability (KN-93 + Phenformin; first compound 8 µM) | relative viability (KN-93 + Alpelisib; first compound 0.08 µM) | relative viability (KN-93 + Alpelisib; first compound 0.253 µM) | relative viability (KN-93 + Alpelisib; first compound 2.53 µM) | relative viability (KN-93 + Alpelisib; first compound 8 µM) | relative viability (KN-93 + Foretinib; first compound 0.08 µM) | relative viability (KN-93 + Foretinib; first compound 0.253 µM) | relative viability (KN-93 + Foretinib; first compound 2.53 µM) | relative viability (KN-93 + Foretinib; first compound 8 µM)
1 | LK-2 | 0.207 | 0.182 | 0.189 | 0.165 | 0.214 | 0.199 | 0.216 | 0.27 | 0.505 | 0.398 | 0.341 | 0.233 | 0.905 | 1.51 | 1.32 | 0.673 | 1.16 | 1.58 | 1.48 | 1.15
2 | LOU-NH91 | 0.663 | 0.565 | 0.827 | 0.65 | 0.746 | 0.716 | 0.75 | 0.703 | 0.667 | 0.614 | 0.8 | 0.628 | 0.716 | 0.647 | 0.756 | 0.64 | 0.963 | 0.886 | 1.01 | 0.885
3 | LU99A | 0.327 | 0.273 | 0.27 | 0.275 | 0.529 | 0.703 | 0.566 | 0.504 | 0.91 | 0.88 | 0.774 | 0.676 | 0.525 | 0.636 | 0.557 | 0.39 | 0.884 | 0.896 | 0.817 | 0.676
4 | NCI-H522 | 0.824 | 0.746 | 0.801 | 0.558 |  |  |  |  | 0.666 | 0.704 | 0.741 | 0.636 |  |  |  |  |  |  |  | 
5 | NCI-H1395 | 0.702 | 0.666 | 0.707 | 0.469 |  |  |  |  | 0.477 | 0.449 | 0.48 | 0.449 | 1.16 | 1.1 | 1.05 | 0.506 | 1.09 | 0.934 | 0.964 | 0.697
6 | NCI-H1650 | 0.574 | 0.596 | 0.496 | 0.465 | 0.874 | 1.01 | 1.15 | 0.547 | 0.468 | 0.417 | 0.571 | 0.25 |  |  |  |  | 1.18 | 1.16 | 1.25 | 0.644
7 | NCI-H1703 |  |  |  |  | 0.677 | 1.03 | 0.911 | 0.225 |  |  |  |  | 0.298 | 0.319 | 0.304 | 0.227 | 0.351 | 0.364 | 0.352 | 0.238
8 | NCI-H1792 | 0.527 | 0.651 | 0.768 | 0.664 |  | 1.1 | 0.976 | 0.914 | 0.177 |  | 0.25 | 0.258 |  | 0.759 | 0.735 | 0.458 |  |  |  | 
9 | NCI-H1793 | 0.242 | 0.245 | 0.261 | 0.152 |  |  |  |  | 0.372 | 0.36 | 0.367 | 0.2 |  | 0.851 | 0.624 | 0.542 | 0.729 | 0.799 | 0.642 | 0.287
10 | NCI-H2342 | 0.587 | 0.62 | 0.625 | 0.582 |  |  |  |  | 0.536 | 0.62 | 0.671 | 0.487 |  |  |  |  | 0.918 | 0.962 | 1.06 | 0.902
